Data on 18 compounds can be found in paper PMC9585939, “Unveiling a family of spiro-β-lactams with anti-HIV and antiplasmodial activity via phosphine-catalyzed [3+2] annulation of 6-alkylidene-penicillanates and allenoates” (Frontiers in Chemistry, 2022).

The nature of data set [1]: Cellular viability assay (alamarBlue) in TZM-bl cells. Format: cell-based. The settings on record: human, 50% cytotoxic concentration. On the procedure:
Before the antiviral activity screening, all spirocyclopentene-β-lactams were assayed for their in vitro cytotoxic activity (CC50) in TZM-bl cells (Table 4).
TZM-bl cells (AIDS Research and Reference Reagent Program, National Institutes of Health, United States) were cultured in complete growth medium consisting of Dulbecco’s Minimal Essential Medium (DMEM) supplemented with 10% fetal bovine serum (FBS), 100 U/ml of penicillin–streptomycin (Gibco/Invitrogen, United States), 1 mM of sodium pyruvate (Gibco/Invitrogen, United States), 2 mM of L-glutamine (Gibco/Invitrogen, United States), and 1 mM of non-essential amino acids (Gibco/Invitrogen, United States). Cell cultures were maintained at 37°C in 5% CO2.
The in vitro cytotoxicity of test compounds was evaluated in TZM-bl cells using alamarBlue cell viability reagent (Life Technologies, United States), according to the instructions of the manufacturer. The cells were cultured in the presence and absence of serial-fold dilutions of the test compounds. Each dilution of each compound was performed in triplicate wells. Medium controls (only growth medium), cell controls (cells without test compound), and cytotoxicity controls (a compound that kills cells) were employed in each assay.
(The colour change of resazurin is a common sign of viable cells or microbes.)

The next data set deals with HIV-1 SG3.1. The data set can be described thus: microbe, parasite or virus in culture. To be noted: for inhibition at 25 µg/mL / IC50 / IC90: Human immunodeficiency virus 1, TZM-bl; for inhibition at 25 µg/mL: read-out: MPI (%) 25 μg/mL; for Therapeutic index (CC50/IC50): CC50 in TZM-bl cells; for IC50 / IC90: 48 h; for IC50: read-out: IC50 HIV-1, TZM-bl cells, 48 h; for IC90: read-out: IC90 HIV-1. From the text: The HIV-1 SG3.1 is a reference subtype B strain that uses the CXCR4 coreceptor. It was obtained by transfection of HEK293T cells with pSG3.1 plasmid using jetPRIME transfection reagent (Polyplus-transfection SA, Illkirch, France), according to the instructions of the manufacturer.
Briefly, TZM-bl cells were infected with 200 TCID50 of HIV-1 or HIV-2 in the presence of serial-fold dilutions of the compounds in the growth medium, supplemented with diethylaminoethyl-dextran (DEAE-dextran). After 48 h of infection, luciferase expression was quantified with Pierce Firefly Luc One-Step Glow Assay Kit (ThermoFisher Scientific, Rockford, United States), according to the instructions of the manufacturer. For each compound dilution, the assay was set up in triplicate wells. Virus controls, cell controls, and inhibitors controls (drugs with a known action against each virus) were employed.

The structures appear in SMILES notation.

As usually defined, the CC50 is the concentration that lowers cell viability or growth by half. A lower CC50 goes with harm at low concentration. For orientation: melting point means the temperature, or range, at which the solid turns liquid. Compound `CC1(C)SC2N(C(=O)C23C(C(=O)OCc2ccccc2)=CCC3C(=O)c2ccc(Br)cc2)C1C(=O)OC(c1ccccc1)c1ccccc1` (stereo not drawn) [Compound 13c, (1’R,2’R)-Benzhydryl spiro[(2-(4-bromobenzoyl)-5-benzyloxycarbonylcyclopent-4-ene)-1’,6-penicillanate]] gave a melting point of 115.9 to 117.9 °C. In data set [1], the CC50 stood at 50.6 µM. In the data set on HIV-1 SG3.1, the inhibition at 25 µg/mL came to 0%.

`CC1(C)SC2N(C(=O)C23C(C(=O)OCc2ccccc2)=CCC3C(=O)c2ccco2)C1C(=O)OC(c1ccccc1)c1ccccc1` (stereo not drawn) [Compound 13i, (1’R,2’R)-Benzhydryl spiro[(2-furoyl-5-benzyloxycarbonylcyclopent-4-ene)-1’,6-penicillanate]]: the melting point was 112.8 to 114.8 °C. Also, half-maximal cytotoxicity in data set [1] (CC50) was put at 61.2 µM. For the same compound, the inhibition at 25 µg/mL in the data set on HIV-1 SG3.1 came to 0%.

On to `CC1(C)SC2N(C(=O)C23C(C(=O)OCc2ccccc2)=CCC3C(=O)c2ccc(C(F)(F)F)cc2)C1C(=O)OC(c1ccccc1)c1ccccc1` (stereo not drawn) [Compound 13e, (1’R,2’R)-Benzhydryl spiro[(2-(4-trifluoromethylbenzoyl)-5-benzyloxycarbonylcyclopent-4-ene)-1’,6-penicillanate]], for which the melting point lay within 141.1 to 143.1 °C. Besides, in data set [1], the CC50 was found to be 54.7 µM. The inhibition at 25 µg/mL with HIV-1 SG3.1 came out at 0%.

In general, IC50 refers to the concentration that gives 50% inhibition. `CC1(C)SC2N(C(=O)C23CC=C(C(=O)OCc2ccc(Cl)cc2)C3C(=O)c2ccccc2)C1C(=O)OC(c1ccccc1)c1ccccc1` (stereo not drawn) [Compound 9k, (1’R,2’R)-Benzhydryl spiro[(2-benzoyl-3-(4-chlorobenzyloxycarbonyl)cyclopent-3-ene)-1’,6-penicillanate]] showed a melting point of 49.8 to 51.5 °C. The compound further gave a CC50 in data set [1] of 54.1 µM. For the same compound, in the data set with HIV-1 SG3.1 (HIV-1), the “Therapeutic index (CC50/IC50)” value is given as 148.11. For the same compound, in the data set with HIV-1 SG3.1, the IC50 stood at 0.366 µM and the inhibition at 25 µg/mL came out at 84%.

`CC(C)(C)c1ccc(OC(=O)C2=CCC3(C(=O)N4C(C(=O)OC(c5ccccc5)c5ccccc5)C(C)(C)SC43)C2C(=O)c2ccccc2)cc1` (stereo not drawn) [Compound 9b, (1’R,2’R)-Benzhydryl spiro[(2-benzoyl-3-(4-tert-butylphenoxycarbonyl)cyclopent-3-ene)-1’,6-penicillanate]] registered a melting point of 206.7 to 208.9 °C. The compound further displayed a CC50 in data set [1] of 54.7 µM. In addition, in the data set with HIV-1 SG3.1, the inhibition at 25 µg/mL turned out to be 0%.

On to `CC1(C)SC2N(C(=O)C23CC=C(C(=O)Oc2ccc4ccccc4c2)C3C(=O)c2ccccc2)C1C(=O)OC(c1ccccc1)c1ccccc1` (stereo not drawn) [Compound 9d, (1’R,2’R)-Benzhydryl spiro[(2-benzoyl-3-(2-naphthoxycarbonyl)cyclopent-3-ene)-1’,6-penicillanate]], for which, in data set [1], the CC50 was 38 µM. Besides, the inhibition at 25 µg/mL in the data set on HIV-1 SG3.1 was found to be 54%.

Take `CC1(C)SC2N(C(=O)C23C(C(=O)OCc2ccccc2)=CCC3C(=O)c2ccc3ccccc3c2)C1C(=O)OC(c1ccccc1)c1ccccc1` (stereo not drawn) [Compound 13h, (1’R,2’R)-Benzhydryl spiro[(2-naphthoyl-5-benzyloxycarbonylcyclopent-4-ene)-1’,6-penicillanate]]: the melting point is 90.8 to 92.8 °C. The cytotoxic concentration (CC50) in data set [1] stood at 56.2 µM. In the data set with HIV-1 SG3.1, the inhibition at 25 µg/mL was determined as 0%.

By IC90 is commonly meant the concentration needed for an effect of 90%. `CC1(C)SC2N(C(=O)C23CC=C(C(=O)OCc2ccccc2)C3C(=O)c2cc(F)cc(F)c2)C1C(=O)OC(c1ccccc1)c1ccccc1` (stereo not drawn) [Compound 12f, (1’R,2’R)-Benzhydryl spiro[(2-(3,5-difluorobenzoyl)-3-benzyloxycarbonylcyclopent-3-ene)-1’,6-penicillanate]] yielded a melting point of 69.5 to 71.5 °C. The CC50 in data set [1] worked out at 70.1 µM. Moreover, in the data set with HIV-1 SG3.1 (HIV-1), the “Therapeutic index (CC50/IC50)” value was 531.34. Further, in the data set on HIV-1 SG3.1, the IC50 was determined as 0.132 µM, the IC90 is 0.585 µM and the inhibition at 25 µg/mL is 88%.

The compound `Cc1ccc(COC(=O)C2=CCC3(C(=O)N4C(C(=O)OC(c5ccccc5)c5ccccc5)C(C)(C)SC43)C2C(=O)c2ccccc2)cc1` (stereo not drawn) [Compound 9j, (1’R,2’R)-Benzhydryl spiro[(2-benzoyl-3-(4-methylbenzyloxycarbonyl)cyclopent-3-ene)-1’,6-penicillanate]] showed a melting point of 59 to 60.8 °C. Further, the CC50 in data set [1] amounted to 60 µM. The “Therapeutic index (CC50/IC50)” value with HIV-1 SG3.1 (HIV-1) is listed as 674.49. In the data set on HIV-1 SG3.1, the IC50 stood at 0.089 µM, the IC90 was determined as 0.209 µM and the inhibition at 25 µg/mL came out at 93%.

With `CC1(C)SC2N(C(=O)C23CC=C(C(=O)OCc2ccccc2)C3C(=O)c2ccc([N+](=O)[O-])cc2)C1C(=O)OC(c1ccccc1)c1ccccc1` (stereo not drawn) [Compound 12d, (1’R,2’R)-Benzhydryl spiro[(2-(4-nitrobenzoyl)-3-benzyloxycarbonylcyclopent-3-ene)-1’,6-penicillanate]], the melting point was in the range of 122 to 123.7 °C. Further, in data set [1], the CC50 was 53 µM. For the same compound, the “Therapeutic index (CC50/IC50)” value in the data set on HIV-1 SG3.1 (HIV-1) stood at 297.75. Moreover, in the data set with HIV-1 SG3.1, the IC50 came out at 0.178 µM, the 90% effect concentration (IC90) was 0.413 µM and the inhibition at 25 µg/mL was 80%.

Compound `CC1(C)SC2N(C(=O)C23CC=C(C(=O)OC(c2ccccc2)c2ccccc2)C3C(=O)c2ccccc2)C1C(=O)OC(c1ccccc1)c1ccccc1` (stereo not drawn) [Compound 9g, (1’R,2’R)-Benzhydryl spiro[(2-benzoyl-3-benzhydryloxycarbonylcyclopent-3-ene)-1’,6-penicillanate]] had a melting point of 83.4 to 85.2 °C. Also, in data set [1], the CC50 was 45.3 µM. Moreover, in the data set with HIV-1 SG3.1, the inhibition at 25 µg/mL came out at 0%.

For the compound `CC1(C)SC2N(C(=O)C23CC=C(C(=O)OCc2ccccc2)C3C(=O)c2ccco2)C1C(=O)OC(c1ccccc1)c1ccccc1` (stereo not drawn) [Compound 12i, (1’R,2’R)-Benzhydryl spiro[(2-furoyl-3-benzyloxycarbonylcyclopent-3-ene)-1’,6-penicillanate]], the melting point is 76.5 to 78.5 °C. In addition, in data set [1], the CC50 is 78.3 µM. Also, the “Therapeutic index (CC50/IC50)” value in the data set on HIV-1 SG3.1 (HIV-1) is reported as 559.29. For the same compound, in the data set on HIV-1 SG3.1, the IC50 came out at 0.14 µM, the IC90 was 0.223 µM and the inhibition at 25 µg/mL came to 87%.

`Cc1ccc(COC(=O)C2=CCC3(C(=O)N4C(C(=O)OC(c5ccccc5)c5ccccc5)C(C)(C)SC43)C2C(=O)c2ccc(Br)cc2)cc1` (stereo not drawn) [Compound 14h, (1’R,2’R)-Benzhydryl spiro[(2-(4-bromobenzoyl)-3-(4-methylbenzyloxycarbonyl)cyclopent-3-ene)-1’,6-penicillanate]] yielded a melting point of 74.9 to 76.9 °C. In data set [1], it took 72.1 µM to reach half-maximal cytotoxicity (CC50). In addition, the “Therapeutic index (CC50/IC50)” value with HIV-1 SG3.1 (HIV-1) is 649.73. Further, in the data set on HIV-1 SG3.1, the IC50 was found to be 0.111 µM, the IC90 came out at 0.297 µM and the inhibition at 25 µg/mL came to 93%.

`CC(COC(=O)C1=CCC2(C(=O)N3C(C(=O)OC(c4ccccc4)c4ccccc4)C(C)(C)SC32)C1C(=O)c1ccccc1)c1ccccc1` (stereo not drawn) [Compound 9o, (1’R,2’R)-Benzhydryl spiro[(2-benzoyl-3-(1-phenylpropan-2-yloxycarbonyl)cyclopent-3-ene)-1’,6-penicillanate]] showed a CC50 in data set [1] of 44.7 µM. The inhibition at 25 µg/mL in the data set with HIV-1 SG3.1 came to 0%.

Consider `CC1(C)SC2N(C(=O)C23CC=C(C(=O)Oc2ccccc2)C3C(=O)c2ccccc2)C1C(=O)OC(c1ccccc1)c1ccccc1` (stereo not drawn) [Compound 9a, (1′R,2′R)-Benzhydryl spiro[(2-benzoyl-3-phenoxycarbonylcyclopent-3-ene)-1′,6-penicillanate]], for which the melting point is > 137 °C (dec.). In data set [1], this compound registered a CC50 of 215 µM. Further, the “anti-HIV activity (in words)” value with HIV-1 SG3.1 (HIV-1) is recorded as “lack of antiviral activity”. In addition, the inhibition at 25 µg/mL in the data set with HIV-1 SG3.1 is 0%.

The compound `CC(C)CCOC(=O)C1=CCC2(C(=O)N3C(C(=O)OC(c4ccccc4)c4ccccc4)C(C)(C)SC32)C1C(=O)c1ccccc1` (stereo not drawn) [Compound 9f, (1’R,2’R)-Benzhydryl spiro[(2-benzoyl-3-isopentoxycarbonylcyclopent-3-ene)-1’,6-penicillanate]] registered a CC50 in data set [1] of 53.4 µM. Further, the inhibition at 25 µg/mL with HIV-1 SG3.1 came to 21%.

As to `CCCCCOC(=O)C1=CCC2(C(=O)N3C(C(=O)OC(c4ccccc4)c4ccccc4)C(C)(C)SC32)C1C(=O)c1ccccc1` (stereo not drawn) [Compound 9e, (1’R,2’R)-Benzhydryl spiro[(2-benzoyl-3-pentoxycarbonylcyclopent-3-ene)-1’,6-penicillanate]], the CC50 in data set [1] was found to be 60.3 µM. Besides, the inhibition at 25 µg/mL in the data set with HIV-1 SG3.1 was 44%.

Turning to `Cc1ccc(COC(=O)C2=CCC3(C(=O)N4C(C(=O)OC(c5ccccc5)c5ccccc5)C(C)(C)SC43)C2C(=O)c2ccc(F)cc2)cc1` (stereo not drawn) [Compound 14b, (1’R,2’R)-Benzhydryl spiro[(2-(4-fluorobenzoyl)-3-(4-methylbenzyloxycarbonyl)cyclopent-3-ene)-1’,6-penicillanate]], half-maximal cytotoxicity in data set [1] (CC50) was put at 78.3 µM. In the data set with HIV-1 SG3.1, the IC50 came out at 0.146 µM, the IC90 amounted to 0.338 µM and the inhibition at 25 µg/mL was 95%.
